According to US12240828B2, “Heteroaromatic compounds as vanin inhibitors” (Boehringer Ingelheim International GmbH, priority 2018, dated 2025):

Legend:
[1] = molecular target: T1, FLAG-tagged Vanin-1 (AA 22-493, T26I) (Homo sapiens, UniProt O95497, T26I); assay: Vanin-1 enzymatic assay; type: biochemical; conditions: 0.1 nM Vanin-1, 3 μM D-pantethine, pantothenic acid formation by RapidFire MS; geometric mean if multiple measurements; read-out: VNN-1 IC50
T1 construct: FLAG-tagged Vanin-1 (AA 22-493, T26I, produced internally); FLAG; made in house
T1 sequence (O95497 22-493 T26I): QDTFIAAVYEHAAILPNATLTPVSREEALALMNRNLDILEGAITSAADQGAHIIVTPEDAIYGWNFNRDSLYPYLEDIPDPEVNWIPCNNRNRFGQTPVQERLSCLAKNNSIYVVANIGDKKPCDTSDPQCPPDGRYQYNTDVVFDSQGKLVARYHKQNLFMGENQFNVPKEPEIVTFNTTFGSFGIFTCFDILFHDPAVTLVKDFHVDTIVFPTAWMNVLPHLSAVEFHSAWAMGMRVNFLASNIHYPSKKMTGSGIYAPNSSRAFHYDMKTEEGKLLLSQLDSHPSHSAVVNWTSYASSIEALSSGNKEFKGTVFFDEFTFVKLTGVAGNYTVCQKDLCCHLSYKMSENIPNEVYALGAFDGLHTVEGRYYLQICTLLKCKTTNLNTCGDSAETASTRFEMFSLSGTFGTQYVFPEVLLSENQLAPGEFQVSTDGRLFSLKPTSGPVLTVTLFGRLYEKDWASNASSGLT
Description: The test compounds are dissolved in 100% DMSO at a concentration of 10 mM and in a first step diluted in DMSO to a concentration of 5 mM, followed by serial dilution steps in 100% DMSO. Dilution factor and number of dilution steps may vary according to needs. Typically 8 different concentrations by 1:5 dilutions are prepared, a further intermediate dilutions of the substances is carried out with assay buffer resulting in 1% final DMSO concentration in the assay.
0.1 nM of FLAG-tagged Vanin-1 (AA 22-493, T26I, produced internally) and test compounds are incubated at room temperature for 20 minutes in assay buffer (1 mM DTT, 0.0025% Brij-35, 50 mM HEPES, pH7.5). D-Pantethine (Sigma, Cat #P2125-5G) in assay buffer is added (final concentration 3 μM) and incubated for additional 30 minutes at room temperature. Total assay volume typically is 40 μl but might be adjusted according to needs. Reaction is stopped by adding equal volume of stop solution as the reaction mixture to reach 100 nM HD-pantothenic acid (as an internal standard) and 1% TFA. Assay plates are centrifuged for 2 minutes and the formation of pantothenic acid is detected by RapidFire Mass Spectrometry (mobile phase A: 0.1% formic acid and 0.01% trifluoroacetic acid in water; mobile phase B: 47.5% acetonitrile, 47.5% methanol, 0.1% formic acid and 0.01% trifluoroacetic acid in water) using a C18, 12 μL cartridge (Agilent Cat #G9205A).
The values given in Table I result from measurements of one or more samples. In case of multiple measurements the geometric mean values are given.

[2] = tested on: Pantetheinase (vanin); assay: Human Whole Blood assay; type: cell-based; conditions: pantethine substrate, pantothenic acid formation by RapidFire MS, read-out: HWB IC50
Description: Human Whole Blood assay: Pantetheinase (vanin) converts panteheine into pantothenic acid and cysteamine. Accordingly, in the described protocol vanin activity is quantified by formation of pantothenic acid after pantetheine supplementation via pantethine. The assay is applicable to identify vanin inhibitors. Compound stocks are dissolved in DMSO at 10 mM. Further dilutions are performed in RPMI 1640 medium (Gibco, #A-10491-01) and final concentrations in the assay are 0.032 nM-500 nM.
Human blood is drawn into a blood bag (1% heparin, 50 I.E./mL). Blood is aliquoted into cavities of 96-deep-well plates at 290 μL and mixed with 10 μL compound solution or vehicle (30 sec at 1400 rpm on a shaker). Equilibration follows at room temperature, 250 rpm and for 30 min. The assay is starts by adding 10 μL of substrate solution (20 μM pantethine in 1 mM DTT, 0.0025% Brij-35, 50 mM HEPES, pH7.5) to each well, except for some blank wells which receive […] substrate buffer (1 mM DTT, 0.0025% Brij-35, 50 mM HEPES, pH7.5) only. Samples are thoroughly shaken (30 sec, 1400 rpm) and reaction is allowed to take place at room temperature, 250 rpm and for 5 min. The reaction is stopped by addition of a vanin tool inhibitor in excess (BI-1 total conc. 10 μM). Centrifugation of the plate follows at 4° C., 665 G for 10 min. Then the blood plasma samples (100 μL) are transferred into another 96-deep-well plate and proteins are precipitated (5 min on ice) by adding 100 μL of ice cold precipitation solution (1 μM labelled pantothenic acid (di-β-alanine-13C6,15N2 calcium salt, Sigma, #705837) in acetonitrile). Afterwards the plate is centrifuged (4° C., 3220 G, 10 min) and supernatants (50 μL) are collected into another 96-deep-well plate and mixed (10 sec, 1400 rpm) with 150 μL ice cold formic acid (0.1%, Carl Roth GmbH+Co.KG, #CP03.1). The formation of pantothenic acid is detected by RapidFire Mass Spectrometry. A TripleQuad 6500+ (ABSciex, Germany) is equipped with an LC-1290 system, a RapidFire autosampler (Agilent, Germany) and a C18 cartridge Type C 12 μL (Agilent Cat #G9526-80000). Mobile phase A is consisting of 0.09% formic acid and 0.01% trifluoroacetic acid in water and mobile phase B of 0.09% formic acid and 0.01% trifluoroacetic acid in acetonitrile/methanol/water=47.5/47.5/5.

Row | SMILES | IC50 [1] | IC50 [2]
1 | CC(=O)N(C)[C@H]1CCN(C(=O)c2ccc(NC(C)c3ccccc3)nc2)C1 (stereo partly drawn) [Example 9.7] | 720 pM | 
2 | CC(=O)N(C)[C@H]1CCN(C(=O)c2ccc(N[C@@H](C)c3ccc(Cl)nc3)nc2)C1 [Example 1.11, N-[(3S)-1-(6-{[(1S)-1-(6-chloropyridin-3-yl)ethyl]-amino}pyridine-3-carbonyl)pyrrolidin-3-yl]-N-methylacetamide] | 150 pM | 1900 pM
3 | C[C@H](Nc1ccc(C(=O)N2CC[C@H](N(C)C(=O)C3(C)CCC3)C2)cn1)c1cnccn1 [Example 1.76] | 4330 pM | 
4 | CC(=O)N(C)[C@H]1CCN(C(=O)c2ccc(NC(C)c3nccs3)nc2)C1 (single isomer, unassigned) [Example 5.1.B] | 940 pM | 
5 | CC(=O)N(C)[C@H]1CCN(C(=O)c2ccc(NC3CCCc4cn[nH]c43)nc2)C1 (stereo partly drawn) [Example 1.81] | 6990 pM | 
6 | CC(=O)N(C)[C@H]1CCN(C(=O)c2ccc(N[C@@H](C)c3cccc(S(=O)(=O)N(C)C)c3)nc2)C1 [Example 1.45] | 940 pM | 
7 | CC(=O)N(C)[C@H]1CCN(C(=O)c2ccc(NCc3ccc(N)nc3)nc2)C1 [Example 1.34] | 470 pM | 
8 | CC(=O)N(C)[C@H]1CCN(C(=O)c2ccc(N[C@@H](C)c3ccc(C#N)nc3)nc2)C1 [Example 11.1, N-[(3S)-1-(6-{[(1S)-1-(6-cyanopyridin-3-yl)ethyl]amino}pyridine-3-carbonyl)pyrrolidin-3-yl]-N-methylacetamide] | 740 pM | 
9 | CC(=O)N(C)[C@H]1CCN(C(=O)c2ccc(NCc3ccncc3)nc2)C1 [Example 1.87] | 8450 pM | 
10 | CC(=O)N(C)[C@H]1CCN(C(=O)c2ccc(NC(C)c3cccnc3)nc2)C1 (single isomer, unassigned) [Example 6.1.B] | 1430 pM | 
11 | CC(=O)N(C)[C@H]1CCN(C(=O)c2ccc(NCc3ccnn3C)nc2)C1 [Example 1.90] | 9370 pM | 
12 | CC(=O)N(C)[C@H]1CCN(C(=O)c2ccc(NCc3cncc(Br)c3)nc2)C1 [Example 1.41] | 770 pM | 
13 | CC(=O)Nc1cccc(C(C)Nc2ccc(C(=O)N3CC[C@H](N(C)C(C)=O)C3)cn2)c1 (stereo partly drawn) [Example 1.36] | 540 pM | 
14 | O=C(N[C@H]1CCN(C(=O)c2ccc(NC3(c4cncnc4)CC3)nc2)C1)C1CC1 [Example 8.13] | 4280 pM | 
15 | CC(=O)N(C)[C@H]1CCN(C(=O)c2ccc(NC3CCc4[nH]ncc43)nc2)C1 (stereo partly drawn) [Example 1.35] | 530 pM | 
16 | CC(=O)N(C)[C@H]1CCN(C(=O)c2ccc(NCc3cccc(-c4nc(CC(F)(F)F)no4)c3)nc2)C1 [Example 1.48] | 980 pM | 
17 | CC[C@H](Nc1ccc(C(=O)N2CC[C@H](N(C)C(C)=O)C2)cn1)c1ccc(C(F)F)cc1 [Example 1.62] | 2360 pM | 
18 | CN(C)c1ccc(CNc2ccc(C(=O)N3CC[C@H](N(C)C(=O)C4(C)CCC4)C3)cn2)cn1 [Example 1.46] | 960 pM | 
19 | CC(=O)N(C)[C@H]1CCN(C(=O)c2ccc(NCc3cc(CC(C)C)n[nH]3)nc2)C1 [Example 1.88] | 8830 pM | 
20 | CC(=O)N(C)[C@H]1CCN(C(=O)c2ccc(NCc3cccnn3)nc2)C1 [Example 1.49] | 1040 pM | 
21 | CN(C(=O)C1(C)CCC1)[C@H]1CCN(C(=O)c2ccc(NCc3cnccc3C(F)(F)F)nc2)C1 [Example 1.39] | 660 pM | 
22 | CC(=O)N(C)[C@H]1CCN(C(=O)c2ccc(NCc3ccccn3)nc2)C1 [Example 1.56] | 1650 pM | 

Results, then the compound that gave them:

Row | IC50 [1] | IC50 [2] | SMILES
23 | 460 pM | 2050 pM | CN(C(=O)C1CC1)[C@H]1CCN(C(=O)c2ccc(NCc3cnccc3C(F)(F)F)nc2)C1 [Example 1.33]
24 | 220 pM | 3680 pM | CC(=O)N(C)[C@H]1CCN(C(=O)c2ccc(NC(C)(C)c3ccc(Cl)cc3)nc2)C1 [Example 4.7]
25 | 70 pM | 1590 pM | Cc1ccncc1CNc1ccc(C(=O)N2CC[C@H](N(C)C(=O)C3CC3)C2)cn1 [Example 1.5]
26 | 340 pM | 3300 pM | O=C(c1ccc(NCc2cccnc2)nc1)N1CCC2(CCOCC2)C1 [Example 8.11]
27 | 260 pM | 5210 pM | CNS(=O)(=O)c1cccc([C@H](C)Nc2ccc(C(=O)N3CC[C@H](N(C)C(C)=O)C3)cn2)c1 [Example 1.23]
28 | 270 pM |  | CNC(=O)c1cccc([C@H](C)Nc2ccc(C(=O)N3CC[C@H](N(C)C(C)=O)C3)cn2)c1 [Example 1.25]
29 | 120 pM | 1690 pM | CN(C(=O)C1CC1)[C@H]1CCN(C(=O)c2ccc(NCc3cccnc3)nc2)C1 [Example 1.8]
30 | 330 pM | 2160 pM | CN(C(=O)C1(C)CCC1)[C@H]1CCN(C(=O)c2ccc(NC3(c4cncnc4)CC3)nc2)C1 [Example 8.10]
31 | 90 pM |  | CN(C(=O)C1CC(F)(F)C1)[C@H]1CCN(C(=O)c2ccc(NC(C)(C)c3ccccc3)nc2)C1 [Example 2.3]
32 | 240 pM | 800 pM | CNS(=O)(=O)c1cccc(C(C)Nc2ccc(C(=O)N3CC[C@H](N(C)C(C)=O)C3)cn2)c1 (stereo partly drawn) [Example 1.21]
33 | 130 pM | 1160 pM | CN(C(=O)C1CC(F)(F)C1)[C@H]1CCN(C(=O)c2ccc(NCc3cccnc3)nc2)C1 [Example 8.4]
34 | 170 pM |  | CN(C(=O)C1CC1)[C@H]1CCN(C(=O)c2ccc(NCc3ccc(Cl)nc3)nc2)C1 [Example 1.13]
35 | 150 pM |  | CC(=O)N(C)[C@H]1CCN(C(=O)c2ccc(NC3(c4ccc(Cl)cc4)CCC3)nc2)C1 [Example 9.2]
36 | 320 pM |  | CN(C(=O)C1(C)CCC1)[C@H]1CCN(C(=O)c2ccc(NCc3ccc(Cl)nc3)nc2)C1 [Example 1.28]
37 | 120 pM |  | CN(C(=O)C1(C)CCC1)[C@H]1CCN(C(=O)c2ccc(NCc3cccnc3Cl)nc2)C1 [Example 1.7]
38 | 350 pM |  | CC(=O)N(C)[C@H]1CCN(C(=O)c2ccc(NC(C)c3cccc(C(N)=O)c3)nc2)C1 (stereo partly drawn) [Example 10.1, 3-[1-({5-[(3S)-3-(N-Methylacetamido)pyrrolidine-1-carbonyl]pyridin-2-yl}amino)ethyl]benzamide]
39 | 210 pM |  | CC(=O)N(C)[C@H]1CCN(C(=O)c2ccc(NC3(c4ccccc4)CCC3)nc2)C1 [Example 4.6]
40 | 340 pM |  | COC(=O)c1cccc(C(C)Nc2ccc(C(=O)N3CC[C@H](N(C)C(C)=O)C3)cn2)c1 (stereo partly drawn) [Example 1.29]
41 | 110 pM |  | CN(C(=O)C1(C)CCC1)[C@H]1CCN(C(=O)c2ccc(NC(C)(C)c3cccnc3)nc2)C1 [Example 8.1, N,1-Dimethyl-N-[(3S)-1-(6-{[2-(pyridin-3-yl)propan-2-yl]amino}pyridine-3-carbonyl)pyrrolidin-3-yl]cyclobutane-1-carboxamide]
